[invAb] = 3' inverted deoxyabasic cap; [amino-N] = 2'-deoxy-2'-amino nucleotide (N: the base); [I] = hypoxanthine (inosine)
system: plus strand HCV RNA; format: biochemical, Hepatitis C virus; conditions: plus strand (+) HCV site, 50 mM Tris-Cl, pH 8.0, 40 mM Mg2+ at 37°, trace substrate, enzymatic nucleic acid concentration of 500 nM or greater

Row | Substance | % Substrate Cleaved in 3 hours [%]
1 | 22944 (UCCUGUUCUGAUGAGGCCGUUAGGCCGAAAUGUGCC; 2'-O-methyl at 1, 2, 3, 4, 5, 6, 7, 15, 16, 17, 18, 19, 20, 21, 22, 23, 24, 25, 26, 31, 32, 33, 34, 35, 36, [invAb] at 3' end, other sugars and backbone not given here) [compound 22944] | 90.33
2 | 22778 (UGAUGGACUGAUGAGGCCGUUAGGCCGAANCUGUGA; ribozyme; 2'-O-methyl at 1, 2, 3, 4, 5, 6, 7, 15, 16, 17, 18, 19, 20, 21, 22, 23, 24, 25, 26, 31, 32, 33, 34, 35, 36, [I] at 30, [invAb] at 3' end, other sugars and backbone not given here) [compound 22778] | 83.77
3 | 22751 (GAGUUGAGCCGAAAGGCGAGUGAGGUCUUGGAGUG; 2'-O-methyl at 1, 2, 3, 4, 5, 6, 7, 8, 9, 10, 11, 12, 13, 14, 15, 16, [amino-N] at 17, 27, [invAb] at 3' end, other sugars and backbone not given here) [compound 22751] | 14.85
4 | 22748 (AGGUGAAGCCGAAAGGCGAGUGAGGUCUAGCUGAG; 2'-O-methyl at 1, 2, 3, 4, 5, 6, 7, 8, 9, 10, 11, 12, 13, 14, 15, 16, [amino-N] at 17, 27, [invAb] at 3' end, other sugars and backbone not given here) [compound 22748] | 80.28
5 | 22974 (CUGGUGAGGCTAGCTACAACGAGGAGGCUN; 3' inverted abasic cap (B); misc_feature (30)..(30): n stands for inverted deoxyabasic derivative; misc_feature (1)..(7): 2'-O-Methyl; misc_feature (23)..(29): 2'-O-Methyl) [compound 22974] | 57.82
6 | 22971 (AGGAAGAGGCTAGCTACAACGAAGAGAAAN; 3' inverted abasic cap (B); misc_feature (30)..(30): n stands for inverted deoxyabasic derivative; misc_feature (1)..(7): 2'-O-Methyl; misc_feature (23)..(29): 2'-O-Methyl) [compound 22971] | 92.11
7 | 22777 (CGAGGAACUGAUGAGGCCGUUAGGCCGAANAGAGGA; ribozyme; 2'-O-methyl at 1, 2, 3, 4, 5, 6, 7, 15, 16, 17, 18, 19, 20, 21, 22, 23, 24, 25, 26, 31, 32, 33, 34, 35, 36, [I] at 30, [invAb] at 3' end, other sugars and backbone not given here) [compound 22777] | 90.12
8 | 22945 (GGAAGGACUGAUGAGGCCGUUAGGCCGAAAGGAUGC; 2'-O-methyl at 1, 2, 3, 4, 5, 6, 7, 15, 16, 17, 18, 19, 20, 21, 22, 23, 24, 25, 26, 31, 32, 33, 34, 35, 36, [invAb] at 3' end, other sugars and backbone not given here) [compound 22945] | 82.54
9 | 22776 (GGUGAACCUGAUGAGGCCGUUAGGCCGAANCUGAGA; ribozyme; 2'-O-methyl at 1, 2, 3, 4, 5, 6, 7, 15, 16, 17, 18, 19, 20, 21, 22, 23, 24, 25, 26, 31, 32, 33, 34, 35, 36, [I] at 30, [invAb] at 3' end, other sugars and backbone not given here) [compound 22776] | 84.55
10 | 22779 (UGAGGAACUGAUGAGGCCGUUAGGCCGAANGUGGAG; ribozyme; 2'-O-methyl at 1, 2, 3, 4, 5, 6, 7, 15, 16, 17, 18, 19, 20, 21, 22, 23, 24, 25, 26, 31, 32, 33, 34, 35, 36, [I] at 30, [invAb] at 3' end, other sugars and backbone not given here) [compound 22779] | 82.22

— US20040127446A1 (priority 1992, published 2004)
